pIC50: −log10 of the molar value.
Biological target: T1, human full-length MKNK1 (Homo sapiens, UniProt Q9BUB5, T385D)
T1 construct: purchased Carna Biosciences 02-145; host or cells: insect cells, baculovirus expression system
Assay: MKNK1 kinase high ATP assay (TR-FRET)
Type: biochemical
Settings: high ATP (2 mM), 15 min preincubation with enzyme, GST-MKNK1 (T344D)
Experimental: MKNK1-inhibitory activity at high ATP of compounds of the present invention after their preincubation with MKNK1 was quantified employing the TR-FRET-based MKNK1 high ATP assay as described in the following paragraphs.
A recombinant fusion protein of Glutathione-S-Transferase (GST, N-terminally) and human full-length MKNK1 (amino acids 1-424 and T344D of accession number BAA 19885.1), expressed in insect cells using baculovirus expression system and purified via glutathione sepharose affinity chromatography, was purchased from Carna Biosciences (product no 02-145) and used as enzyme. As substrate for the kinase reaction the biotinylated peptide biotin-Ahx-IKKRKLTRRKSLKG (C-terminus in amide form) was used, which can be purchased e.g. from the company Biosyntan (Berlin-Buch, Germany).
For the assay 50 nL of a 100fold concentrated solution of the test compound in DMSO was pipetted into a black low volume 384well microtiter plate (Greiner Bio-One, Frickenhausen, Germany), 2 μL of a solution of MKNK1 in aqueous assay buffer [50 mM HEPES pH 7.5, 5 mM MgCl2, 1.0 mM dithiothreitol, 0.005% (v/v) Nonidet-P40 (Sigma)] was added and the mixture was incubated for 15 min at 22° C. to allow pre-binding of the test compounds to the enzyme before the start of the kinase reaction. Then the kinase reaction was started by the addition of 3 μL of a solution of adenosine-tri-phosphate (ATP, 3.3 mM=>final conc. in the 5 μL assay volume is 2 mM) and substrate (0.1 μM=>final conc. in the 5 μL assay volume is 0.06 μM) in assay buffer and the resulting mixture was incubated for a reaction time of 30 min at 22° C. The concentration of MKNK1 was adjusted depending of the activity of the enzyme lot and was chosen appropriate to have the assay in the linear range, typical concentrations were in the range of 0.003 μg/mL. The reaction was stopped by the addition of 5 μL of a solution of TR-FRET detection reagents (5 nM streptavidine-XL665 [Cisbio Bioassays, Codolet, France] and 1 nM anti-ribosomal protein […] (pSer236)-antibody from Invitrogen [#44921G] and 1 nM LANCE EU-W1024 labeled ProteinG [Perkin-Elmer, product no. AD0071]) in an aqueous EDTA-solution (100 mM EDTA, 0.1% (w/v) bovine serum albumin in 50 mM HEPES pH 7.5).
The resulting mixture was incubated for 1 h at 22° C. to allow the formation of complex between the phosphorylated biotinylated peptide and the detection reagents. Subsequently the amount of phosphorylated substrate was evaluated by measurement of the resonance energy transfer from the Eu-chelate to the streptavidine-XL. Therefore, the fluorescence emissions at 620 nm and 665 nm after excitation at 350 nm were measured in a TR-FRET reader, e.g. a Rubystar (BMG Labtechnologies, Offenburg, Germany) or a Viewlux (Perkin-Elmer). The ratio of the emissions at 665 nm and at […] was taken as the measure for the amount of phosphorylated substrate. The data were normalised (enzyme reaction without inhibitor=0% inhibition, all other assay components but no enzyme=100% inhibition).

T1 sequence (Q9BUB5 1-424 isoform Q9BUB5-2 T344D): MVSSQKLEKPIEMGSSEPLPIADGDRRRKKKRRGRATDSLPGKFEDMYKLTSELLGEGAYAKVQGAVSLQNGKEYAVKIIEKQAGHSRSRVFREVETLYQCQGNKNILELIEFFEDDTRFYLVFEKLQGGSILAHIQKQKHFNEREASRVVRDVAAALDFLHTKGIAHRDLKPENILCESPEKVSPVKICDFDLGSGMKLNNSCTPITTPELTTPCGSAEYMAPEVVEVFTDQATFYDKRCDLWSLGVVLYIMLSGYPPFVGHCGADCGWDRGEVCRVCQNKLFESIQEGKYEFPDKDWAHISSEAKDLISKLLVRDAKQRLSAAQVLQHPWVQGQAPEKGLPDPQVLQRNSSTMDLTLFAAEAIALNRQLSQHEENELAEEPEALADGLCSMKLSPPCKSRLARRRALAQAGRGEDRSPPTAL

Point of comparison: `O=C(O)C1CCc2[nH]c3ncnc(Nc4ccccc4N4CCOCC4)c3c2C1` (racemic) [Example 186, (RS)-4-{[2-(Morpholin-4-yl)phenyl]amino}-6,7,8,9-tetrahydro-5H-pyrimido[4,5-b]indole-6-carboxylic acid], pIC50 6.04. Against it:
- CC(C)Oc1cc(F)ccc1Nc1ncnc2[nH]c3c(c12)CCC3 [Example 70, N-(4-Fluoro-2-isopropoxyphenyl)-5,6,7,8-tetrahydrocyclopenta[4,5]pyrrolo[2,3-d]pyrimidin-4-amine] — 1.28 log units higher, 7.32
- COc1ccc(Cl)cc1Nc1ncnc2[nH]c3c(c12)CC(C(=O)NCCCS(C)(=O)=O)CC3 (racemic) [Example 149, (RS)-4-[(5-Chloro-2-methoxyphenyl)amino]-N-[3-(methylsulfonyl)propyl]-6,7,8,9-tetrahydro-5H-pyrimido[4,5-b]indole-6-carboxamide] — 1.96 log units higher, 8.00
- Cc1nc2cc(Nc3ncnc4[nH]c5c(c34)CC(C(=O)NCCCS(C)(=O)=O)CC5)ccc2s1 (racemic) [Example 50, (RS)-4-[(2-Methyl-1,3-benzothiazol-5-yl)amino]-N-[3-(methylsulfonyl)propyl]-6,7,8,9-tetrahydro-5H-pyrimido[4,5-b]indole-6-carboxamide] — 0.85 log units lower, 5.19
- CC(C)Oc1cc2[nH]ncc2cc1Nc1ncnc2[nH]c3c(c12)CCCC3 [Example 126] — 2.26 log units higher, 8.30
- COc1cccc(Nc2ncnc3[nH]c4c(c23)CC(C(=O)NCCCS(C)(=O)=O)CC4)c1OC (racemic) [Example 74, (RS)-4-[(2,3-Dimethoxyphenyl)amino]-N-[3-(methylsulfonyl)propyl]-6,7,8,9-tetrahydro-5H-pyrimido[4,5-b]indole-6-carboxamide] — within 0.2 log units, 5.94
- COc1ccc(Cl)cc1Sc1ncnc2[nH]c3c(c12)CC(C(=O)NCCCS(C)(=O)=O)CC3 (racemic) [Example 148, (RS)-4-[(5-Chloro-2-methoxyphenyl)sulfanyl]-N-[3-(methylsulfonyl)propyl]-6,7,8,9-tetrahydro-5H-pyrimido[4,5-b]indole-6-carboxamide] — 0.28 log units lower, 5.76
- COCC1(OC)CCc2[nH]c3ncnc(Nc4ccc5[nH]ncc5c4)c3c2C1 (racemic) [Example 135] — 0.74 log units higher, 6.78
- COc1cc2[nH]c(=O)sc2cc1Nc1ncnc2[nH]c3c(c12)CC(F)(F)CC3 [Example 238, 6-[(6,6-Difluoro-6,7,8,9-tetrahydro-5H-pyrimido[4,5-b]indol-4-yl)amino]-5-methoxy-1,3-benzothiazol-2(3H)-one] — 1.96 log units higher, 8.00
- CS(=O)(=O)CCCNC(=O)C1CCc2[nH]c3ncnc(Nc4ccccc4OC4CCCC4)c3c2C1 (racemic) [Example 78, (RS)-4-{[2-(Cyclopentyloxy)phenyl]amino}-N-[3-(methylsulfonyl)propyl]-6,7,8,9-tetrahydro-5H-pyrimido[4,5-b]indole-6-carboxamide] — 1.58 log units higher, 7.62
- O=c1[nH]c2cc(Cl)c(Nc3ncnc4[nH]c5c(c34)CCCC5)cc2s1 [Example 236, 5-Chloro-6-(6,7,8,9-tetrahydro-5H-pyrimido[4,5-b]indol-4-ylamino)-1,3-benzothiazol-2(3H)-one] — 1.22 log units higher, 7.26
- CCOC(=O)C1CCc2[nH]c3ncnc(Nc4cc(Cl)ccc4OC)c3c2C1 (racemic) [Example 175, (RS)-Ethyl 4-[(5-chloro-2-methoxyphenyl)amino]-6,7,8,9-tetrahydro-5H-pyrimido[4,5-b]indole-6-carboxylate] — 0.40 log units higher, 6.44
- CCOC(=O)C1CCc2[nH]c3ncnc(N4CCc5ccccc54)c3c2C1 (racemic) [Example 173, (RS)-Ethyl 4-(2,3-dihydro-1H-indol-1-yl)-6,7,8,9-tetrahydro-5H-pyrimido[4,5-b]indole-6-carboxylate] — 0.60 log units lower, 5.44
- CS(=O)(=O)CCCNC(=O)C1CCc2[nH]c3ncnc(Nc4ccc5ncsc5c4)c3c2C1 (racemic) [Example 49, (RS)-4-(1,3-Benzothiazol-6-ylamino)-N-[3-(methylsulfonyl)propyl]-6,7,8,9-tetrahydro-5H-pyrimido[4,5-b]indole-6-carboxamide] — 0.60 log units higher, 6.64
- COc1cc2[nH]ncc2cc1Nc1ncnc2[nH]c3c(c12)CC(C(=O)N1CCN(C)CC1)CC3 (racemic) [Example 221, (RS)-{4-[(6-Methoxy-1H-indazol-5-yl)amino]-6,7,8,9-tetrahydro-5H-pyrimido[4,5-b]indol-6-yl}(4-methylpiperazin-1-yl)methanone] — 2.36 log units higher, 8.40
- O=C(O)C1CCc2[nH]c3ncnc(Nc4ccccc4OC4CCCC4)c3c2C1 (racemic) [Example 180, (RS)-4-{[2-(Cyclopentyloxy)phenyl]amino}-6,7,8,9-tetrahydro-5H-pyrimido[4,5-b]indole-6-carboxylic acid] — 0.50 log units lower, 5.54
- CCOC(=O)C1CCc2[nH]c3ncnc(Nc4ccc(F)cc4OCCO)c3c2C1 (racemic) [Example 176, (RS)-Ethyl 4-{[4-fluoro-2-(2-hydroxyethoxy)phenyl]amino}-6,7,8,9-tetrahydro-5H-pyrimido[4,5-b]indole-6-carboxylate] — 0.72 log units higher, 6.76
- COc1ccc(N(C)C)cc1Nc1ncnc2[nH]c3c(c12)CC(C(=O)NCCCS(C)(=O)=O)CC3 (racemic) [Example 158, (RS)-4-{[5-(Dimethylamino)-2-methoxyphenyl]amino}-N-[3-(methylsulfonyl)propyl]-6,7,8,9-tetrahydro-5H-pyrimido[4,5-b]indole-6-carboxamide] — lower, ≤ 4.70
- O=C(NCc1cccc(C(F)(F)F)c1)C1CCc2[nH]c3ncnc(N4CCc5ccccc54)c3c2C1 (racemic) [Example 210, (RS)-4-(2,3-Dihydro-1H-indol-1-yl)-N-[3-(trifluoromethyl)benzyl]-6,7,8,9-tetrahydro-5H-pyrimido[4,5-b]indole-6-carboxamide] — lower, ≤ 4.70
- Clc1ccc(Nc2ncnc3[nH]c4c(c23)CCCC4)cc1Cl [Example 114] — 0.21 log units lower, 5.83
- CC(C)Oc1ccc(Br)cc1Nc1ncnc2[nH]c3c(c12)CCCC3 [Example 127] — 0.84 log units lower, 5.20
- c1ccc(CN2CCc3[nH]c4ncnc(Nc5ccc6[nH]ncc6c5)c4c3C2)cc1 [Example 24, 6-Benzyl-N-(1H-indazol-5-yl)-6,7,8,9-tetrahydro-5H-pyrido[3′,4′:4,5]pyrrolo[2,3-d]pyrimidin-4-amine] — 0.40 log units higher, 6.44
- COCC1(OC)CCc2[nH]c3ncnc(Nc4ccc(F)cc4OC(C)C)c3c2C1 (racemic) [Example 137] — within 0.2 log units, 6.11
- COc1ccc(Nc2ncnc3[nH]c4c(c23)CC(C(=O)NCCCS(C)(=O)=O)CC4)c(OC)c1 (racemic) [Example 73, (RS)-4-[(2,4-Dimethoxyphenyl)amino]-N-[3-(methylsulfonyl)propyl]-6,7,8,9-tetrahydro-5H-pyrimido[4,5-b]indole-6-carboxamide] — 0.66 log units lower, 5.38
- COCC1(OC)CCc2[nH]c3ncnc(Nc4cc(Cl)ccc4OC)c3c2C1 (racemic) [Example 133] — 0.65 log units higher, 6.69
- CS(=O)(=O)CCCNC(=O)C1CCc2[nH]c3ncnc(Nc4ccc(F)c5[nH]c(=O)ccc45)c3c2C1 (racemic) [Example 82, (RS)-4-[(8-Fluoro-2-oxo-1,2-dihydroquinolin-5-yl)amino]-N-[3-(methylsulfonyl)propyl]-6,7,8,9-tetrahydro-5H-pyrimido[4,5-b]indole-6-carboxamide] — 1.06 log units lower, 4.98
- O=c1[nH]c2ccc(Nc3ncnc4[nH]c5c(c34)CCCC5)cc2[nH]c1=O [Example 110] — 1.13 log units lower, 4.91
- c1ccc(OC2CCOCC2)c(Nc2ncnc3[nH]c4c(c23)CCCC4)c1 [Example 130, N-[2-(tetrahydro-2H-pyran-4-yloxy)phenyl]-6,7,8,9-tetrahydro-5H-pyrimido[4,5-b]indol-4-amine] — 1.01 log units higher, 7.05
- CC(C)Oc1cc(F)ccc1Nc1ncnc2[nH]c3c(c12)CCCC3 [Example 1, N-(4-Fluoro-2-isopropoxyphenyl)-6,7,8,9-tetrahydro-5H-pyrimido[4,5-b]indol-4-amine] — 1.33 log units higher, 7.37
- CNS(=O)(=O)c1ccc(Nc2ncnc3[nH]c4c(c23)CC(C(=O)NCCCS(C)(=O)=O)CC4)cc1 (racemic) [Example 41, (RS)-4-{[4-(Methylsulfamoyl)phenyl]amino}-N-[3-(methylsulfonyl)propyl]-6,7,8,9-tetrahydro-5H-pyrimido[4,5-b]indole-6-carboxamide] — 1.01 log units lower, 5.03

From US20150133426A1, “SUBSTITUTED PYRROLOPYRIMIDINES” (BAYER PHARMA AKTIENGESELLSCHAFT, priority 2012, published 2015)
